Data reported in patent US5811465A, “Composition, device, and method for electrotransport agent delivery” (priority 1997, dated 1998).
Like-named read-outs stand apart in the source and are kept apart here.

What was measured:
[1] = Water solubility of permeation enhancer; assay type: physicochemical; conditions: at about 20° C.
[2] = Electrical conductivity of human cadaver skin during electrotransport with permeation enhancer (Example 1); conditions: for Normalized Skin Conductivity (after 5 hrs): control = 1.00, 100 μA/cm^2, about 32° C.; for enhancement (skin conductivity), in words: comparison among tested enhancers, with/without ethanol
Protocol: (§1) Human cadaver skin was prepared by first removing about 1 mm thick skin samples with an electric dermatome in the form of strips. The skin strips were placed in polyethylene bags, sealed and placed in a refrigerator at about 4° C. for temporary storage. Prior to use in the electrotransport cell, the skin strips were placed in one-liter beakers containing water at 60° C. for about 90 seconds with gentle stirring. Then, the skin strips were removed and placed onto the absorbent side of a piece of BENCHKOTE™ fabric with the dermis side down. Using flat tipped tweezers to retain the dermis, the epidermis was removed from each strip with a round-tip spatula. Each epidermis, stratum comeum side up, was transferred to a PYREX™ glass tray which was filled with water. Each floating epidermis was stretched essentially flat. After removal from the water 2.22 cm (7/8 in.) diameter disks of each epidermis were punched out of areas having negligible surface damage. The disks were stored at 4° C. in a sealed container with water droplets to maintain their moisture.
(§2) The human cadaver epidermis disks were mounted between compartments 44 and 46 of the electrotransport permeation cell shown in FIG. 2. The cell was comprised of a polycarbonate support structure 52, including O-ring seals 54, and the assembly was held together with stainless steel bolt and nut 56. The human skin disk 42 separated the anodic compartment 44 and the cathodic compartment 46. A silver anode 48 was placed adjacent to the anodic compartment 44, and a silver chloride cathode 50 was placed adjacent to the cathodic compartment 46. The area of the human skin disk 42 exposed for transport was about 1.26 cm^2 and the volume of each of compartments 44 and 46 was about 2 ml. The electrodes 48, 50 were electrically connected to a galvanostat (not shown in FIG. 2), which can be set to apply the voltage necessary to achieve a constant predetermined level of electric current. The galvanostat was set to apply a current of 126 μA, ie, 100 μA/cm^2 across electrodes 48, 50 throughout each test.
(§3) Dulbecco's phosphate buffered saline (about 0.15M NaCl with minor amounts of other ions, pH 7.0) was placed in the anodic receptor compartment 44. The skin resistance was calculated from the voltages applied by the galvanostat according to Ohm's law, ie, Rskin =ΔV/i, where ΔV is the potential applied by the galvanostat, and i is the applied current, 126 microamps.
(§4) The system was maintained at about 32° C. by a Haake Model D1 heating block/water bath. The cell voltage was monitored over the entire procedure, and then averaged. The skin resistance was calculated from Ohm's law as described above using the measured ΔV.
(§5) The samples were automatically taken from the receptor compartment every one to two hours, except for overnight experimentation, with an Isco Model 2230 autosampler and a metering pump. […] Each run was conduced in triplicate, including the control, to minimize error. All cells were set up with tissue from the same cadaver. The selected permeation enhancer was placed in the donor compartment, while the control cell's donor compartment contained no enhancer.
(§6) Thus, the flux control and the skin conductivity control were each assigned a value of 1, and the flux/conductivity values obtained after addition of each permeation enhancer to the donor solution are normalized to the control.

[3] = for Normalized Ketoprofen Flux (after 5 hrs): control = 1.00, 100 μA/cm^2, about 32° C.
Protocol: as §1, §2, §3, §4, §5, §6

[4] = 25 mM enhancer in 20% Ethanol, pH 7.05
[5] = 25 mM enhancer, without ethanol, pH 6.90
[6] = 1,2-dodecane diol with vs without ethanol
[7] = 10 mM enhancer in 20% Ethanol, pH 7.30 (ODAA), 7.00 (A3)
[8] = 10 mM enhancer, without ethanol, pH 7.20 (DMDDA), 6.90 (DDPDCl)

With CCCCCCCCCCC(O)CO (stereo not shown) [1,2-Dodecanediol, 1,2-dodecane diol] the water solubility [1] was “greater than 25 mM”, the “Normalized Skin Conductivity (after 5 hrs)” value (from here on “Normalized Skin Conductivity”) [2, 4] was 6.81 and the “Normalized Skin Conductivity” value [2, 5] was 5.69. The “increase in skin conductivity by presence of ethanol” value [2, 6] was “about 20%”, the “enhancement of skin conductivity relative to the other permeation enhancers” value ([2]; alone without ethanol) was “more than double” and the “enhancement (skin conductivity), in words” value [2] was “effective for enhancing both flux and skin conductivity in the presence and in the absence of ethanol”. For the same compound, the “Normalized Ketoprofen Flux (after 5 hrs)” value [3, 4] was 1.95, the “Normalized Ketoprofen Flux (after 5 hrs)” value [3, 5] was 1.99 and the “effect of ethanol as solvent on ketoprofen flux” value [3, 6] was “did not affect ketoprofen flux”. The “ketoprofen flux enhanced, relative to control value (in words)” value ([3]; addition of 1,2-dodecane diol) was “about double” and the “enhancement (flux), in words” value ([3]; ketoprofen flux, comparison among tested enhancers, with/without ethanol) was “effective for enhancing both flux and skin conductivity in the presence and in the absence of ethanol”.

In the case of CCCCCCCCCCCC(=O)OCCCn1ccn(C)c1=O [A3, 1-methyl-4-imidazoline-2-one-3-propylenedodecanoate], the “Normalized Skin Conductivity” value [2, 7] is reported as 5.93 and the “Normalized Ketoprofen Flux (after 5 hrs)” value [3, 7] is reported as 1.76.

For CCCCCCCCCCCCN(C)C [DMDDA, N,N-dimethyl-dodecylamine], the “Normalized Skin Conductivity” value [2, 8] was 2.71 and the “Normalized Ketoprofen Flux (after 5 hrs)” value [3, 8] was 1.37.

With CCCCCCCCCCCCO [Dodecanol, dodecanol] the “Normalized Skin Conductivity” value [2, 4] was 34.7, the “enhancement (skin conductivity), in words” value [2] was “greatest enhancement” and the “enhancement (flux), in words” value [3] was “greatest enhancement”.

With “octyl-N,N-dimethyl-dodecylamino acetate [ODAA]” the “Normalized Skin Conductivity” value [2, 7] was 4.61.
